The target in experiment [1] is HDAC8 (Homo sapiens (Human), UniProt Q9BY41). Kind of experiment: In vitro enzyme inhibition assay - HDAC (HDAC-Glo I/II), HDAC8. The format is biochemical. The note with it: read-out: HDAC IC50 (nM) HDAC 8. The procedure:
2. In Vitro Enzyme Inhibition Assay—HDAC
The effect of the compound on the enzymatic activity of pan-HDAC and two isoforms (HDAC1 and HDAC8) was examined using the HDAC-Glo I/II Assay and Screening System assay to assess the level of inhibition of HDAC protease activity and selectivity in each isoform. The proteins and detection reagents were from the HDAC-Glo™ I/II Assay and Screening System (Promega). A 1 mM stock solution of the compound was prepared in DMSO and diluted in a 5-fold gradient to create a series of 8 concentrations, and a specific volume of the highest concentration was diluted 25 times with HDAC Buffer to obtain 4× working solution of the compound. […] The 384-well plate was then read on a multifunctional microplate reader, with the Luminescence channel selected to record Luminescence values (RLU). The inhibition rate was calculated using the following formula: […]
Note: ‘Negative’ refers to the group without the inhibitor; ‘Blank’ refers to the group without the enzyme.
The IC50 value was calculated by fitting the inhibition rate by GraphPad Prism software, employing log (inhibitor) vs. response-Variable Slope (four parameters) model.

Experiment [2] has as its system NCI-H1417 cells. The experiment is described as follows: In vitro cell inhibition assay - H1417 cell proliferation (CellTiter-Glo). The format is cell-based. Conditions: Homo sapiens, NCI-H1417, H1417 small cell lung cancer cell proliferation. Summed up:
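Cells exposed to 8 compound concentrations (5-fold dilutions) in BEGM with 10% FBS for 7 days at 37° C., 5% CO2. Viable cells measured by CellTiter-Glo luminescence; inhibition versus no-inhibitor and no-cell controls, IC50 fitted.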
On the technique in general: ATP-based viability assays read luminescence as a measure of living cells.

Experiment [3] has as its target LSD1 (Homo sapiens (Human), UniProt O60341). The experiment is described as follows: In vitro enzyme inhibition assay - LSD1 (HTRF). The format is biochemical. A general note: In TR-FRET formats the signal depends on donor and acceptor labels being close together.
In experiment [4] the target is pan-HDAC. The experiment is described as follows: In vitro enzyme inhibition assay - HDAC (HDAC-Glo I/II), pan-HDAC. In kind it is biochemical. Summed up: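 Inhibition was measured with the HDAC-Glo I/II luminescent assay, testing compound as an 8-point, 5-fold dilution series from a 1 mM DMSO stock. Luminescence (RLU) was normalized to no-inhibitor and no-enzyme controls, and IC50 was derived by four-parameter variable-slope fitting.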

The test system of experiment [5] is NCI-H69 cells. Kind of experiment: In vitro cell inhibition assay - NCI-H69 cell proliferation (CellTiter-Glo). The format is cell-based. The note with it: Homo sapiens, NCI-H69, H69 small cell lung cancer cell proliferation. Summed up: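 Over 7 days at 37° C. and 5% CO2, cells grew in RPMI-640 supplemented with 20% FBS in the presence of eight 5-fold-spaced compound concentrations.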

Where a name gives a salt, the structure may show the parent alone.

HDAC8, sequence (Q9BY41 whole entry): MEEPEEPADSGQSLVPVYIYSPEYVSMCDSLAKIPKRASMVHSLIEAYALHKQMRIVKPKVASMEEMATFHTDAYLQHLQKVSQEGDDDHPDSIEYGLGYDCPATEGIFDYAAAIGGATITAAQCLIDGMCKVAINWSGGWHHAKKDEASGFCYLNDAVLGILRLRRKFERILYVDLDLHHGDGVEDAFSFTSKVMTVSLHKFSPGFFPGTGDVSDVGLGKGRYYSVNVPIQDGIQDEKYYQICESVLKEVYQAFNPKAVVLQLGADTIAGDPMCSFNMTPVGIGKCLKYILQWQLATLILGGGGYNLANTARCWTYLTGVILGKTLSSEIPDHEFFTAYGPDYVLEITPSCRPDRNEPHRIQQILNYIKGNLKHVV

Usually IC50 stands for the concentration that gives 50% inhibition. Regarding `COc1ccc(-c2cnc(N3CCC(NCc4ccc(OC(C)C(=O)NO)cc4)CC3)c(C#N)c2-c2ccc(C#N)c(F)c2)cc1O` (stereo not shown) [Example 183, 2-(4-(((1-(3-Cyano-4-(4-cyano-3-fluorophenyl)-5-(3-hydroxy-4-methoxyphenyl)pyridin-2-yl)piperidin-4-yl)amino)methyl)phenoxy)-N-hydroxypropanamide formate], the concentration for half-maximal inhibition (IC50) in experiment [1] is 3720 nM; in experiment [2], 1.49 nM; in experiment [3], 0.09 nM; in experiment [4] it was 970 nM; in experiment [5] it was 742 nM.
Take `CC(C)(O)COc1ccc(-c2cnc(N3CCC(NCc4cnc(CCC(=O)NO)s4)CC3)c(C#N)c2-c2ccc(C#N)c(F)c2)cc1O` [Example 185, 3-(5-((1-(3-Cyano-4-(4-cyano-3-fluorophenyl)-5-(3-hydroxy-4-(2-hydroxy-2-methylpropoxy)phenyl)pyridin-2-yl)piperidin-4-yl)amino)methyl)thiazol-2-yl)-N-hydroxypropanamide formate]: the concentration for half-maximal inhibition (IC50) is 2160 nM in experiment [1]; 6.16 nM in experiment [2]; 3.9 nM in experiment [3]; 60.1 nM in experiment [4]; 275 nM in experiment [5].
As to `N#Cc1ccc(-c2c(-c3ccc(C(F)(F)F)c(O)c3)cnc(N3CCC(NCc4cnc(/C=C/C(=O)NO)nc4)CC3)c2C#N)cc1F` [Example 186, (E)-3-(5-(((1-(3-Cyano-4-(4-cyano-3-fluorophenyl)-5-(3-hydroxy-4-(trifluoromethyl)phenyl)pyridin-2-yl)piperidin-4-yl)amino)methyl)pyrimidin-2-yl)-N-hydroxyacrylamide formate], the IC50 in experiment [1] came out at 50.9 nM; in experiment [2] it was 23.5 nM; in experiment [3], 10.2 nM; in experiment [4], 11.9 nM; in experiment [5] it was 85 nM.
For `N#Cc1ccc(-c2c(-c3ccc(C(F)(F)F)c(O)c3)cnc(N3CCC(NCc4ccc(CCC(=O)NO)cc4)CC3)c2C#N)cc1F` [Example 190, 3-(4-((1-(3-Cyano-4-(4-cyano-3-fluorophenyl)-5-(3-hydroxy-4-(trifluoromethyl)phenyl)pyridin-2-yl)piperidin-4-yl)amino)methyl) phenyl)-N-hydroxypropanamide formate] the same measures were 336 nM, 7.33 nM, 2.85 nM, 5.96 nM and 93.4 nM.
As to `COc1ccc(-c2cnc(N3CCC(NCc4ccc(CCC(=O)NO)c(C#N)c4)CC3)c(C#N)c2-c2ccc(C#N)c(F)c2)cc1O` [Example 193, 3-(2-Cyano-4-((1-(3-cyano-4-(4-cyano-3-fluorophenyl)-5-(3-hydroxy-4-methoxyphenyl)pyridin-2-yl)piperidin-4-yl)amino)methyl) phenyl)-N-hydroxypropanamide formate], the IC50 is 297 nM in experiment [1]; 12.6 nM in experiment [2]; 1.71 nM in experiment [3]; 8.36 nM in experiment [4]; 221 nM in experiment [5].
Consider `CNc1ccc(-c2cnc(N3CCC(NCc4ccc(CCC(=O)NO)cn4)CC3)c(C#N)c2-c2ccc(C#N)c(F)c2)cc1O` [Example 194, 3-(6-((1-(3-Cyano-4-(4-cyano-3-fluorophenyl)-5-(3-hydroxy-4-(methylamino)phenyl)pyridin-2-yl)piperidin-4-yl)amino)methyl) pyridin-3-yl)-N-hydroxypropanamide hydrochloride], for which the IC50 in experiment [1] came out at 543 nM; in experiment [2], 119 nM; in experiment [3], 1.09 nM; in experiment [4], 7.27 nM; in experiment [5], 1030 nM.
For `N#Cc1ccc(-c2c(-c3ccc(C(F)(F)F)c(O)c3)cnc(N3CCC(NCc4cnc(CCC(=O)NO)nc4)CC3)c2C#N)cc1F` [Example 195, 3-(5-(1-(3-Cyano-4-(4-cyano-3-fluorophenyl)-5-(3-hydroxy-4-trifluoromethylphenyl)pyridin-2-yl)piperidin-4-ylamino)methyl) pyrimidin-2-yl)-N-hydroxypropanamide formate], the IC50 in experiment [1] was 172 nM; in experiment [2], 52.4 nM; in experiment [3], 4.12 nM; in experiment [4], 11.8 nM; in experiment [5], 1670 nM.
As to `CNc1ccc(-c2cnc(N3CCC(NCc4cnc(/C=C/C(=O)NO)nc4)CC3)c(C#N)c2-c2ccc(C#N)c(F)c2)cc1O` [Example 196, (E)-3-(5-(((1-(3-Cyano-4-(4-cyano-3-fluorophenyl)-5-(3-hydroxy-4-(methylamino)phenyl)pyridin-2-yl)piperidin-4-yl)amino)methyl)pyrimidin-2-yl)-N-hydroxyacrylamide hydrochloride], the IC50 turned out to be 26.5 nM in experiment [1]; 39.3 nM in experiment [2]; 6.68 nM in experiment [3]; 5.69 nM in experiment [4]; 83.3 nM in experiment [5].
Turning to `CC(C)(O)COc1ccc(-c2cnc(N3CCC(NCc4ccc(CCC(=O)NO)nc4)CC3)c(C#N)c2-c2ccc(C#N)c(F)c2)cc1O` [Example 204, 3-(5-((((1-(3-Cyano-4-(4-cyano-3-fluorophenyl)-5-(3-hydroxy-4-(2-hydroxy-2-methylpropoxy)phenyl)pyridin-2-yl)piperidin-4-yl)amino)methyl)pyridin-2-yl)-N-hydroxypropanamide formate], the IC50 was 26.2 nM in experiment [1]; 5.14 nM in experiment [2]; 1.58 nM in experiment [3]; 2.37 nM in experiment [4]; 89.2 nM in experiment [5].
As to `COc1ccc(-c2cnc(N3CCC(NCc4ccc(CCC(=O)NO)cc4)CC3)c(C)c2-c2ccc(C#N)c(F)c2)cc1O` [Example 209, 3-(4-(((1-(4-(4-Cyano-3-fluorophenyl)-5-(3-hydroxy-4-methoxyphenyl)-3-methylpyridin-2-yl)piperidin-4-yl)amino)methyl)phenyl)-N-hydroxypropanamide hydrochloride], the IC50 in experiment [1] worked out at 3.09 nM; in experiment [2] it was 14.5 nM; in experiment [3], 0.6 nM; in experiment [4], 163 nM; in experiment [5], 40.3 nM.
Regarding `COc1ccc(-c2cnc(N3CCC(NCc4ccc(/C=C/C(=O)NO)cc4C)CC3)c(C#N)c2-c2ccc(C#N)c(F)c2)cc1O` [Example 211, (E)-3-(4-(((1-(3-Cyano-4-(4-cyano-3-fluorophenyl)-5-(3-hydroxy-4-methoxyphenyl)pyridin-2-yl)piperidin-4-yl)amino)methyl)-3-methylphenyl)-N-hydroxyacrylamide formate], the IC50 worked out at 83.5 nM in experiment [1]; 10.7 nM in experiment [2]; 0.31 nM in experiment [3]; 2.04 nM in experiment [4]; 189 nM in experiment [5].
In the case of `C/C(=C\C(=O)NO)c1ccc(CNC2CCN(c3ncc(-c4ccc(OCC(C)(C)O)c(O)c4)c(-c4ccc(C#N)c(F)c4)c3C#N)CC2)cc1` [Example 212, (E)-3-(4-(((1-(3-Cyano-4-(4-cyano-3-fluorophenyl)-5-(3-hydroxy-4-(2-hydroxy-2-methylpropoxy)phenyl)pyridin-2-yl)piperidin-4-yl)amino)methyl)phenyl)-N-hydroxybut-2-enamide hydrochloride], the IC50 is 41.5 nM in experiment [1]; 1.16 nM in experiment [2]; 0.04 nM in experiment [3]; 6.55 nM in experiment [4]; 53.8 nM in experiment [5].
On the same counts, the results for `N#Cc1ccc(-c2c(-c3ccc(OCCc4ccc(/C=C/C(=O)NO)cc4)c(O)c3)cnc(N3CCC(N)CC3)c2C#N)cc1F` [Example 231, (E)-3-(4-(2-(4-(6-(4-Aminopiperidin-1-yl)-5-cyano-4-(4-cyano-3-fluorophenyl)pyridin-3-yl)-2-hydroxyphenoxy)ethyl)phenyl)-N-hydroxyacrylamide hydrochloride] are 140 nM, 1.31 nM, 0.07 nM, 82.4 nM and 1140 nM.
On the same counts, the results for `COc1ccc(-c2c(C#N)cc(N3CCC(NCc4cnc(/C=C/C(=O)NO)nc4)CC3)nc2-c2ccc(C#N)c(F)c2)cc1O` [Example 234, (E)-3-(5-(((1-(4-Cyano-6-(4-cyano-3-fluorophenyl)-5-(3-hydroxy-4-methoxyphenyl)pyridin-2-yl)piperidin-4-yl)amino)methyl)pyrimidin-2-yl)-N-hydroxyacrylamide formate] are 51.1 nM, 15 nM, 1.08 nM, 13.3 nM and 77.6 nM.

(Values after patent US20250304549A1, “HYDROXYAMIDE DERIVATIVE AND USE THEREOF” (SICHUAN HUIYU PHARMACEUTICAL CO., LTD., priority 2022, published 2025).)
